The assay deals with T1, human GPBAR1 receptor (Homo sapiens, UniProt Q8TDU6).
T1 construct: expressed in transfected cells
T1 sequence (Q8TDU6 1-330): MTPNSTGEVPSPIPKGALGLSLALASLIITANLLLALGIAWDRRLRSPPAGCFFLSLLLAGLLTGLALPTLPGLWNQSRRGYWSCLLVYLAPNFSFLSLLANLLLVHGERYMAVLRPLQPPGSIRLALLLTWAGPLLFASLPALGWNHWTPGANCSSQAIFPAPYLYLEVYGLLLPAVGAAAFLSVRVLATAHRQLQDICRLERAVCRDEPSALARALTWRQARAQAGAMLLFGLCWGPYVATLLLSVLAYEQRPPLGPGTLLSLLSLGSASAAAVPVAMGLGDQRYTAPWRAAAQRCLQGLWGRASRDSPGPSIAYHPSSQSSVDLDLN
The assay is described as follows: functional cAMP assay in CHO-dhfr(minus) cells expressing human GPBAR1 receptors. Format: cell-based. To be noted: human EC50, functional cAMP assay, 30 min at 30° C. In outline: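 Agonist cAMP read-out: stable GPBAR1 CHO-dhfr− clone, 30 min compound exposure at 30° C following 30 min IBMX (1 mM) preincubation in Krebs Ringer bicarbonate. Time-resolved energy-transfer detection gives EC50; parental CHO cells serve as counter-screen.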
(cAMP levels reflect the balance of adenylyl cyclase and phosphodiesterase activity.)

Molecule `Cc1cc(F)ccc1C(C/C(=N\O)c1ccc(=O)n(C)c1)c1ccc(-c2ccc(NC(=O)CC(=O)O)cc2)cc1` (centres unmarked) [Example 400, N-{4′-[1-(4-Fluoro-2-methyl-phenyl)-3-[(E)-hydroxyimino]-3-(1-methyl-6-oxo-1,6-dihydro-pyridin-3-yl)-propyl]-biphenyl-4-yl}-malonamic acid] came in with an EC50 of 49 nM.
Take `Cc1cc(F)ccc1C(C/C(=N\O)c1ccc(=O)n(C)c1)c1ccc(-c2ccc(S(N)(=O)=O)cc2)cc1` (centres unmarked) [Example 401, 4′-[1-(4-Fluoro-2-methyl-phenyl)-3-[(E)-hydroxyimino]-3-(1-methyl-6-oxo-1,6-dihydro-pyridin-3-yl)-propyl]-biphenyl-4-sulfonic acid amide]: the EC50 was determined as 5 nM.
Regarding `Cn1cc(/C(CC(c2ccc(Br)cc2)c2ccc(F)cc2F)=N/O)ccc1=O` (centres unmarked) [Example 402, 5-{3-(4-Bromo-phenyl)-3-(2,4-difluoro-phenyl)-1-[(E)-hydroxyimino]-propyl}-1-methyl-1H-pyridin-2-one], the EC50 came to 6 nM.
In turn, `Cn1cc(/C(CC(c2ccc(-c3ccc(C(=O)O)cc3)cc2)c2ccc(F)cc2F)=N/O)ccc1=O` (centres unmarked) [Example 403, 4′-[1-(2,4-Difluoro-phenyl)-3-[(E)-hydroxyimino]-3-(1-methyl-6-oxo-1,6-dihydro-pyridin-3-yl)-propyl]-biphenyl-4-carboxylic acid] displayed an EC50 of 138 nM.
In turn, `Cc1ccc(C(C/C(=N\O)c2ccc(=O)n(C)c2)c2ccc(Br)cc2)c(F)c1` (centres unmarked) [Example 408, (E)-5-(3-(4-bromophenyl)-3-(2-fluoro-4-methylphenyl)-1-(hydroxyimino)propyl)-1-methylpyridin-2(1H)-one] came in with an EC50 of 118 nM.
For the molecule `Cn1cc(/C(CC(c2ccc(Br)cc2)c2ccc(F)cc2S(C)(=O)=O)=N/O)ccc1=O` (centres unmarked) [Example 409, (E)-5-{3-(4-Bromo-phenyl)-3-(4-fluoro-2-methanesulfonyl-phenyl)-1-(hydroxyimino)-propyl}-1-methyl-1H-pyridin-2-one], the EC50 is 210 nM.
Take `Cn1cc(/C(CC(c2ccc(Br)cc2)c2ccc(F)cc2Cl)=N/O)ccc1=O` (centres unmarked) [Example 410, (E)-5-(3-(4-bromophenyl)-3-(2-chloro-4-fluorophenyl)-1-(hydroxyimino)propyl)-1-methylpyridin-2(1H)-one]: it took 11 nM to reach a half-maximal effect (EC50).
Then `Cc1ccc(C(C/C(=N\O)c2ccc(=O)n(C)c2)c2ccc(-c3ccc(C(=O)O)cc3)cc2)c(F)c1` (centres unmarked) [Example 411, (E)-4′-(1-(2-fluoro-4-methylphenyl)-3-(hydroxyimino)-3-(1-methyl-6-oxo-1,6-dihydropyridin-3-yl)propyl)biphenyl-4-carboxylic acid], with 995 nM; and `Cn1cc(/C(CC(c2ccc(-c3ccc(C(=O)O)cc3)cc2)c2ccc(F)cc2Cl)=N/O)ccc1=O` (centres unmarked) [Example 412, (E)-4′-(1-(2-chloro-4-fluorophenyl)-3-(hydroxyimino)-3-(1-methyl-6-oxo-1,6-dihydropyridin-3-yl)propyl)biphenyl-4-carboxylic acid], with 30 nM.
Regarding `Cc1cc(/C(C[C@H](c2ccc(-c3nnc(C)o3)cc2)c2ccccc2C)=N/O)ccn1` [Example 417, ((−), E)-3-[4-(5-Methyl-[1,3,4]oxadiazol-2-yl)-phenyl]-1-(2-methyl-pyridin-4-yl)-3-o-tolyl-propan-1-one oxime], the concentration for a half-maximal effect (EC50) stood at 8 nM. Against the preceding molecule, the EC50 is about 3.8-fold lower.
Consider `Cc1cc(/C(C[C@H](c2ccc(-c3nnc(C4CC4)o3)cc2)c2ccccc2C)=N/O)ccn1` [Example 418, ((−), E)-3-(4-(5-Cyclopropyl-1,3,4-oxadiazol-2-yl)phenyl)-1-(2-methylpyridin-4-yl)-3-o-tolylpropan-1-one oxime], for which the midpoint of the response, the EC50, lay at 4 nM. Compared with the last molecule, the EC50 is about 2-fold lower.
`COCc1nnc(-c2ccc([C@@H](C/C(=N\O)c3ccnc(C)c3)c3ccccc3C)cc2)o1` [Example 419, ((−), E)-3-[4-(5-Methoxymethyl-[1,3,4]oxadiazol-2-yl)-phenyl]-1-(2-methyl-pyridin-4-yl)-3-o-tolyl-propan-1-one oxime]: the EC50 turned out to be 8 nM.
The result for `COCCc1nnc(-c2ccc([C@@H](C/C(=N\O)c3ccnc(C)c3)c3ccccc3C)cc2)o1` [Example 420, ((−), E)-3-{4-[5-(2-Methoxy-ethyl)[1,3,4]oxadiazol-2-yl]-phenyl}-1-(2-methyl-pyridin-4-yl)-3-o-tolyl-propan-1-one oxime] reads 15 nM.
`Cc1cc(/C(C[C@H](c2ccc(-c3nnc(C4CCOCC4)o3)cc2)c2ccccc2C)=N/O)ccn1` [Example 421, ((−), E)-1-(2-Methyl-pyridin-4-yl)-3-{4-[5-(tetrahydro-pyran-4-yl)-[1,3,4]oxadiazol-2-yl]-phenyl}-3-o-tolyl-propan-1-one oxime] gave an EC50 of 30 nM.
As to `Cc1cc(/C(C[C@H](c2ccc(-c3ncco3)cc2)c2ccccc2C)=N/O)ccn1` [Example 423], the EC50 was 2 nM.
In turn, `Cc1cc(/C(C[C@H](c2ccc(-c3cn(C)nn3)cc2)c2ccccc2C)=N/O)ccn1` [Example 424, (−)-1-(2-Methyl-pyridin-4-yl)-3-[4-(1-methyl-1H-[1,2,3]triazol-4-yl)-phenyl]-3-o-tolyl-propan-1-one oxime] showed an EC50 of 1 nM.
Molecule `Cc1cc(/C(CC(c2ccc(C(=O)O)cc2)c2ccc(F)cc2F)=N/O)ccn1` (centres unmarked) [Example 431, 4-[1-(2,4-Difluoro-phenyl)-3-[(E)-hydroxyimino]-3-(2-methyl-pyridin-4-yl)-propyl]-benzoic acid] yielded an EC50 of 465 nM.
Consider `Cc1cc(/C(CC(c2ccc(C(=O)NC3CC3)cc2)c2ccc(F)cc2F)=N/O)ccn1` (centres unmarked) [Example 432, N-Cyclopropyl-4-[1-(2,4-difluoro-phenyl)-3-[(E)-hydroxyimino]-3-(2-methyl-pyridin-4-yl)-propyl]-benzamide], for which the midpoint of the response, the EC50, lay at 57 nM. This EC50 lies about 8.2-fold lower than the previous one.
In turn, `Cc1cc(/C(CC(c2ccc(C(=O)NCCO)cc2)c2ccc(F)cc2F)=N/O)ccn1` (centres unmarked) [Example 433, 4-[1-(2,4-Difluoro-phenyl)-3-[(E)-hydroxyimino]-3-(2-methyl-pyridin-4-yl)-propyl]-N-(2-hydroxy-ethyl)-benzamide] yielded an EC50 of 55 nM.
For `Cc1cc(/C(CC(c2ccc(C(=O)NC[C@@H](C)O)cc2)c2ccc(F)cc2F)=N/O)ccn1` (stereo partly drawn) [Example 434, 4-[1-(2,4-Difluoro-phenyl)-3-[(E)-hydroxyimino]-3-(2-methyl-pyridin-4-yl)-propyl]-N—((R)-2-hydroxy-propyl)-benzamide], the response was half-maximal at 49 nM (EC50).
Then `Cc1cc(/C(CC(c2ccc(C(=O)NC(C)(C)CO)cc2)c2ccc(F)cc2F)=N/O)ccn1` (centres unmarked) [Example 435, 4-[1-(2,4-Difluoro-phenyl)-3-[(E)-hydroxyimino]-3-(2-methyl-pyridin-4-yl)-propyl]-N-(2-hydroxy-1,1-dimethyl-ethyl)-benzamide], with 66 nM; and `Cc1cc(/C(CC(c2ccc(C(=O)NC3CCCCC3)cc2)c2ccc(F)cc2F)=N/O)ccn1` (centres unmarked) [Example 436, N-Cyclohexyl-4-[1-(2,4-difluoro-phenyl)-3-[(E)-hydroxyimino]-3-(2-methyl-pyridin-4-yl)-propyl]-benzamide], with 62 nM; and `Cc1cc(/C(CC(c2ccc(C(=O)N3CCC(F)(F)CC3)cc2)c2ccc(F)cc2F)=N/O)ccn1` (centres unmarked) [Example 437, 3-(2,4-Difluoro-phenyl)-3-[4-(4,4-difluoro-piperidine-1-carbonyl)-phenyl]-1-(2-methyl-pyridin-4-yl)-propan-1-one oxime], with 75 nM.
Then `Cc1cc(/C(CC(c2ccc(C(=O)N3CCOCC3)cc2)c2ccc(F)cc2F)=N/O)ccn1` (centres unmarked) [Example 438, 3-(2,4-Difluoro-phenyl)-1-(2-methyl-pyridin-4-yl)-3-[4-(morpholine-4-carbonyl)-phenyl]-propan-1-one oxime], with 132 nM; and `Cc1cc(/C(CC(c2ccc(C(=O)N3CCN(S(C)(=O)=O)CC3)cc2)c2ccc(F)cc2F)=N/O)ccn1` (centres unmarked) [Example 439, 3-(2,4-Difluoro-phenyl)-3-[4-(4-methanesulfonyl-piperazine-1-carbonyl)-phenyl]-1-(2-methyl-pyridin-4-yl)-propan-1-one oxime], with 81 nM; and `Cc1cc(/C(CC(c2ccc(C(=O)NC3CCS(=O)(=O)CC3)cc2)c2ccc(F)cc2F)=N/O)ccn1` (centres unmarked) [Example 440, 4-[1-(2,4-Difluoro-phenyl)-3-[(E)-hydroxyimino]-3-(2-methyl-pyridin-4-yl)-propyl]-N-(1,1-dioxo-hexahydro-1λ^6-thiopyran-4-yl)-benzamide], with 148 nM.
Molecule `Cc1cc(/C(CC(c2ccc(C(=O)NCCN3CCS(=O)(=O)CC3)cc2)c2ccc(F)cc2F)=N/O)ccn1` (centres unmarked) [Example 441, 4-[1-(2,4-Difluoro-phenyl)-3-[(E)-hydroxyimino]-3-(2-methyl-pyridin-4-yl)-propyl]-N-[2-(1,1-dioxo-1λ^6-thiomorpholin-4-yl)-ethyl]-benzamide] gave an EC50 of 39 nM.
As to `Cc1cc(/C(CC(c2ccc(C(F)(F)F)cc2)c2ccc(F)cc2F)=N/O)ccn1` (centres unmarked) [Example 442, 3-(2,4-Difluoro-phenyl)-1-(2-methyl-pyridin-4-yl)-3-(4-trifluoromethyl-phenyl)-propan-1-one oxime], the EC50 came to 109 nM.
The result for `Cc1cc(/C(CC(c2ccc(N3CCOCC3)nc2)c2ccc(F)cc2F)=N/O)ccn1` (centres unmarked) [Example 443, 3-(2,4-Difluoro-phenyl)-1-(2-methyl-pyridin-4-yl)-3-(6-morpholin-4-yl-pyridin-3-yl)-propan-1-one oxime] reads 98 nM.

As usually defined, the EC50 is the concentration needed to bring the measured effect to its halfway point. Higher therefore signals a less potent agent.

Source of the values: patent US8765730B2 (Hoffmann-La Roche Inc, priority 2010, dated 2014).
